In PubChem BioAssay (NCI):
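Interpolation was linear, between the two tested concentrations surrounding the appropriate level; five concentrations were tested over 48 hours in 96-well plates. The concentration for 50% growth inhibition is given as GI50. TGI marks complete inhibition of growth.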

Key:
Assay in all cases: NCI anticancer screen, dose series, 48 h
[1] = test system: HT29 colon
[2] = test system: A549 NSCLC
[3] = test system: SNB-75 CNS
[4] = test system: OVCAR-8 ovarian
[5] = test system: IGROV1 ovarian
[6] = test system: T-47D breast
[7] = test system: TK-10 renal
[8] = test system: HOP-62 NSCLC
[9] = test system: MOLT-4 leukemia
[10] = test system: 786-0 renal
[11] = test system: OVCAR-5 ovarian
[12] = test system: NCI-H522 lung
[13] = test system: U251 CNS
[14] = test system: K-562 leukemia
[15] = test system: UACC-257 melanoma
[16] = test system: NCI/ADR-RES ovarian
[17] = test system: DU-145 prostate
[18] = test system: SF-539 CNS
[19] = test system: A498 renal
[20] = test system: CAKI-1 renal
[21] = test system: OVCAR-3 ovarian
[22] = test system: HCT-15 colon
[23] = test system: UACC-62 melanoma
[24] = test system: EKVX NSCLC
[25] = test system: SK-MEL-5 melanoma
[26] = test system: SK-MEL-28 melanoma
[27] = test system: M14 melanoma
[28] = test system: MDA-MB-435
[29] = test system: SR leukemia
[30] = test system: SNB-19 CNS
[31] = test system: UO-31 renal
[32] = test system: HCC-2998 colon
[33] = test system: COLO 205 colon
[34] = test system: SF-295 CNS
[35] = test system: LOX IMVI melanoma
[36] = test system: NCI-H460 lung
[37] = test system: MALME-3M melanoma
[38] = test system: KM12 colon
[39] = test system: HL-60(TB) leukemia
[40] = test system: OVCAR-4 ovarian
[41] = test system: RPMI-8226 leukemia
[42] = test system: MDA-MB-231 breast
[43] = test system: BT-549 breast
[44] = test system: HOP-92 NSCLC
[45] = test system: ACHN renal
[46] = test system: SK-MEL-2 melanoma
[47] = test system: NCI-H23 lung
[48] = test system: PC-3 prostate
[49] = test system: NCI-H226 lung
[50] = test system: SN12C renal
[51] = test system: CCRF-CEM leukemia
[52] = test system: RXF 393 renal
[53] = test system: HS 578T breast
[54] = test system: SF-268 CNS
[55] = test system: HCT-116 colon
[56] = test system: SK-OV-3 ovarian
[57] = test system: MCF7 breast
[58] = test system: MDA-N
[59] = test system: SW-620 colon

Cc1cc(Cl)cc(Cc2cc(Cl)cc(C)c2O)c1O
GI50 [1]: 3.63 µM
TGI [1]: 10.7 µM
GI50 [2]: 2.91 µM
TGI [2]: 11.1 µM
GI50 [3]: 1.95 µM
TGI [3]: 7.19 µM
GI50 [4]: 2.1 µM
TGI [4]: 6.16 µM
GI50 [5]: 5.18 µM
TGI [5]: 29.5 µM
GI50 [6]: 3.64 µM
TGI [6]: > 100 µM
GI50 [7]: 3.97 µM
TGI [7]: 12 µM
GI50 [8]: 3.66 µM
TGI [8]: 11.5 µM
GI50 [9]: 3.45 µM
TGI [9]: 49.8 µM
GI50 [10]: 2.48 µM
TGI [10]: 7.76 µM
GI50 [11]: 3.35 µM
TGI [11]: 12.3 µM
GI50 [12]: 1.76 µM
TGI [12]: 6.65 µM
GI50 [13]: 2.93 µM
TGI [13]: 11.3 µM
GI50 [14]: 3.08 µM
TGI [14]: 12.1 µM
GI50 [15]: 3.02 µM
TGI [15]: 12.3 µM
GI50 [16]: 2.07 µM
TGI [16]: 5.95 µM
GI50 [17]: 3.47 µM
TGI [17]: 17 µM
GI50 [18]: 2.45 µM
TGI [18]: 6.62 µM
GI50 [19]: 3.05 µM
TGI [19]: 14.1 µM
GI50 [20]: 2.32 µM
TGI [20]: 9.57 µM
GI50 [21]: 2.35 µM
TGI [21]: 7.83 µM
GI50 [22]: 3.06 µM
TGI [22]: 11.3 µM
GI50 [23]: 2.28 µM
TGI [23]: 10.6 µM
GI50 [24]: 3.62 µM
TGI [24]: 68.8 µM
GI50 [25]: 1.71 µM
TGI [25]: 3.61 µM
GI50 [26]: 3.46 µM
TGI [26]: 15.2 µM
GI50 [27]: 2.98 µM
TGI [27]: 11.3 µM
GI50 [28]: 2.05 µM
TGI [28]: 6.39 µM
GI50 [29]: 2.58 µM
TGI [29]: 10.8 µM
GI50 [30]: 3.32 µM
TGI [30]: 16.8 µM
GI50 [31]: 2.06 µM
TGI [31]: 10.6 µM
GI50 [32]: 2.68 µM
TGI [32]: 7.95 µM
GI50 [33]: 5.72 µM
TGI [33]: 18.8 µM
GI50 [34]: 2.49 µM
TGI [34]: 7.14 µM
GI50 [35]: 3 µM
TGI [35]: 8.9 µM
GI50 [36]: 3.14 µM
TGI [36]: 10.5 µM
GI50 [37]: 2.35 µM
TGI [37]: 6.86 µM
GI50 [38]: 2.85 µM
TGI [38]: 10.2 µM
GI50 [39]: 2.94 µM
TGI [39]: 8.09 µM
GI50 [40]: 3.29 µM
TGI [40]: 50.6 µM
GI50 [41]: 1.58 µM
TGI [41]: 9.35 µM
GI50 [42]: 2.46 µM
TGI [42]: 8.22 µM
GI50 [43]: 2.46 µM
TGI [43]: 7.02 µM
GI50 [44]: 0.397 µM
TGI [44]: 2.83 µM
GI50 [45]: 2.26 µM
TGI [45]: 7.26 µM
GI50 [46]: 2.6 µM
TGI [46]: 5.73 µM
GI50 [47]: 1.9 µM
TGI [47]: 8.09 µM
GI50 [48]: 2.55 µM
TGI [48]: 8.68 µM
GI50 [49]: 4.17 µM
TGI [49]: 20.1 µM
GI50 [50]: 2.27 µM
TGI [50]: 9.7 µM
GI50 [51]: 3.08 µM
TGI [51]: 16.1 µM
GI50 [52]: 2.29 µM
TGI [52]: 6.91 µM
GI50 [53]: 2.55 µM
TGI [53]: 7.75 µM
GI50 [54]: 2.9 µM
TGI [54]: 16.8 µM
GI50 [55]: 2.13 µM
TGI [55]: 5.54 µM
GI50 [56]: 3.18 µM
TGI [56]: 8.89 µM
GI50 [57]: 2.47 µM
TGI [57]: 9.66 µM

CCCCc1ccc(C#CC#Cc2ccc(CCCC)s2)s1
TGI [1]: > 100 µM
TGI [3]: > 100 µM
TGI [4]: > 100 µM
TGI [5]: > 100 µM
TGI [6]: > 100 µM
TGI [7]: > 100 µM
TGI [8]: > 100 µM
TGI [9]: > 100 µM
TGI [10]: > 100 µM
TGI [11]: > 100 µM
TGI [58]: > 100 µM
TGI [12]: > 100 µM
TGI [13]: > 100 µM
TGI [15]: > 100 µM
TGI [16]: > 100 µM
TGI [17]: > 100 µM
TGI [18]: > 100 µM
TGI [19]: > 100 µM
TGI [20]: > 100 µM
TGI [21]: > 100 µM
TGI [22]: > 100 µM
TGI [23]: > 100 µM
TGI [24]: > 100 µM
TGI [25]: > 100 µM
TGI [27]: > 100 µM
TGI [28]: > 100 µM
TGI [29]: > 100 µM
TGI [31]: > 100 µM
TGI [32]: > 100 µM
TGI [33]: > 100 µM
TGI [34]: > 100 µM
TGI [36]: > 100 µM
TGI [38]: > 100 µM
TGI [39]: > 100 µM
TGI [40]: > 100 µM
TGI [41]: > 100 µM
TGI [42]: > 100 µM
TGI [44]: > 100 µM
TGI [45]: > 100 µM
TGI [47]: > 100 µM
TGI [49]: > 100 µM
TGI [50]: > 100 µM
TGI [51]: > 100 µM
TGI [52]: > 100 µM
TGI [53]: > 100 µM
TGI [54]: > 100 µM
TGI [55]: > 100 µM
TGI [59]: > 100 µM
TGI [56]: > 100 µM
TGI [57]: > 100 µM
